Laboratory results reported in the NIST ThermoML archive (doi:10.1021/je049701s).

Settings: Liquid; for mass density: 293.1 K, 101.33 kPa; for vapor or sublimation pressure: Ebulliometric method (Recirculating still)

Cc1ccccc1C [1,2-dimethylbenzene]
Settings | Normal boiling temperature [°C] | mass density [kg/m3] | vapor or sublimation pressure [kPa]
396.73 K | – | – | 55
399.52 K | – | – | 60
400.66 K | – | – | 62.13
404.71 K | – | – | 70
407.05 K | – | – | 75
409.44 K | – | – | 80.33
411.44 K | – | – | 85
413.5 K | – | – | 90
415.44 K | – | – | 95
418.23 K | – | – | 102.5
427 K | – | – | 129.3
Vibrating tube method | – | 879.8 | –
ebulliometry | 144.40 | – | –

Cc1cccc(C)c1 [1,3-dimethylbenzene]
Settings | mass density [kg/m3] | vapor or sublimation pressure [kPa]
– | 864.2 | –
362.45 K | – | 21.82
366.31 K | – | 25
371.49 K | – | 29.94
376.31 K | – | 35
380.81 K | – | 40.36
384.3 K | – | 45
387.84 K | – | 50
389.84 K | – | 53.54
393.34 K | – | 60
397.71 K | – | 67.97
400.96 K | – | 75
403.25 K | – | 80
406.5 K | – | 87.74
407.5 K | – | 90
409.4 K | – | 95
415.54 K | – | 111.8
423.34 K | – | 137.3

Cc1ccc(C)cc1 [1,4-dimethylbenzene]
Settings | mass density [kg/m3] | vapor or sublimation pressure [kPa]
– | 861.2 | –
389.8 K | – | 53.26
390.85 K | – | 55
393.61 K | – | 60
398.72 K | – | 70
401.06 K | – | 75
403.29 K | – | 80
405.37 K | – | 84.84
409.38 K | – | 95
420.93 K | – | 129.7

CCc1ccccc1 [ethylbenzene]
Settings | mass density [kg/m3] | vapor or sublimation pressure [kPa]
– | 867.1 | –
385.7 K | – | 50
387.75 K | – | 53.37
391.51 K | – | 60
394.15 K | – | 65
397.49 K | – | 71.87
398.93 K | – | 75
401.16 K | – | 80
403.27 K | – | 85
405.26 K | – | 90
407.14 K | – | 95
412.49 K | – | 110.02
417 K | – | 124.3
